Reference: US20250295734A1, “ANTICOAGULANT PROTEINS AND THEIR USE FOR TREATING DISEASES ASSOCIATED WITH THE ACTIVATION OF NEUTROPHILS” (BIOXODES, priority 2018, published 2025)

Tested on: human washed platelets
Assay: In vitro platelet aggregation assay
Type: cell-based
Settings: agent alone (TRAP 20 μM, ADP 20 μM or Ir-CPI 500 μg/100 μL); n=1
Protocol: Blood from healthy human donors, who had not taken anti-platelet agents within the 15 days prior to collection, was collected in citrated tubes and centrifuged for 13 min at 200 g. The platelet-rich plasma was collected and centrifuged for 13 min at 900 g in Tyrode buffer (138 mM NaCl, 2.9 mM KCl, 12 mM NaHCO3, 5.5 mM glucose, 1.8 mM CaCl2 and 0.4 mM MgCl2, pH 7.4) containing 0.2% BSA, apyrase 0.02 U/mL and PGI2 500 nM. Washed platelets were resuspended in the Tyrode/BSA 0.2%/apyrase/PGI2 solution and centrifuged at 900 g for 13 min. Platelets were resuspended in a Tyrode/BSA 0.2% solution at a concentration of 3.10^8 platelets/mL. Platelets were kept at 37° C. for 30 min in a solution containing […]. Next, platelets were incubated at 37° C. under agitation for 5 to 10 minutes in an aggregometer APACT 4004 with ADP (adenosine diphosphate), TRAP (Thrombin Receptor-Activating Peptide) and/or Ir-CPI.
The effect of Ir-CPI on platelet aggregation was assessed in vitro by using isolated human washed platelets (n=1).

Nc1ncnc2c1ncn2[C@@H]1O[C@H](COP(=O)(O)OP(=O)(O)O)[C@@H](O)[C@H]1O [ADP, adenosine diphosphate, reference compound]
Aggregation Latency: 51.8 s
Aggregation Max: 6.9%
Aggregation Slope: 19.4 %/min
